Here are results for one molecule from publication PMC10520499, “Next step in the development of mesoprogestins: the preclinical profile of EC313” (Frontiers in Endocrinology, 2023).

By EC50 is commonly meant the concentration giving half of the maximal effect.

A short description of one data set: Aqueous solubility. It is filed as physicochemical.
The test system of another data set is cycling guinea pigs. Put plainly: Ovulation inhibition in cycling guinea pigs. In kind it is in vivo, guinea pig. The conditions noted are these: for Number of ovulations vs. number of inseminated females: cycle days 10-17. How it is done: Test compounds were administered once daily from cycle days 10-17 by s. c. injection using 0.2 mL vehicle (benzyl-benzoate/castor oil, ratio 1 + 4 v/v). The time of autopsy (day 18) was 24-48h after the expected ovulation at the end of the treatment cycle. This design permits the study of the effects of the tested compounds on the expected ovulation. Fresh CL were evidence of a recent ovulation.

In a further data set the test system is T47D cells. Nature of the data set: Proliferation / arrest in Go/G1 in T47D cells. More on the design: key to Arrest in Go/G1: ↓/↑ - decreased/increased action of tested compounds.; ↓/↑ - decreased/increased action of tested compounds. It is filed as cell-based, human.
In data set [1] the test system is orchiectomized male Wistar rats. Nature of the data set: Hershberger assay. It is filed as in vivo, rat. The note with it: 3, 10 and 30 mg/animal/day s.c., 7 days; ± Testosterone propionate 1 mg/animal/day. How it is done: To test EC313 for potential androgenic or anti-androgenic potential, the Hershberger assay was used. Orchiectomized male Wistar rats were treated for 7 consecutive days with daily subcutaneous injections of EC313 (3, 10, and 30 mg/animal/day).
The potential anti-androgenic activity was assessed by co-administration of Testosterone propionate (TP; 1 mg/animal/day s.c.), which also served as the positive control, and EC313. The vehicle served as the negative control. One day after the last treatment, animals were sacrificed and the prostate gland and the seminal vesicles were removed and weighed. The relative weight of these organs, expressed as mg/100 g body weight, served as the endpoint.

For another data set, the target named is T1, PR-B – NCoR (Homo sapiens, UniProt P06401).
T1 construct: expressed in transfected cells
T1 sequence (P06401 whole entry): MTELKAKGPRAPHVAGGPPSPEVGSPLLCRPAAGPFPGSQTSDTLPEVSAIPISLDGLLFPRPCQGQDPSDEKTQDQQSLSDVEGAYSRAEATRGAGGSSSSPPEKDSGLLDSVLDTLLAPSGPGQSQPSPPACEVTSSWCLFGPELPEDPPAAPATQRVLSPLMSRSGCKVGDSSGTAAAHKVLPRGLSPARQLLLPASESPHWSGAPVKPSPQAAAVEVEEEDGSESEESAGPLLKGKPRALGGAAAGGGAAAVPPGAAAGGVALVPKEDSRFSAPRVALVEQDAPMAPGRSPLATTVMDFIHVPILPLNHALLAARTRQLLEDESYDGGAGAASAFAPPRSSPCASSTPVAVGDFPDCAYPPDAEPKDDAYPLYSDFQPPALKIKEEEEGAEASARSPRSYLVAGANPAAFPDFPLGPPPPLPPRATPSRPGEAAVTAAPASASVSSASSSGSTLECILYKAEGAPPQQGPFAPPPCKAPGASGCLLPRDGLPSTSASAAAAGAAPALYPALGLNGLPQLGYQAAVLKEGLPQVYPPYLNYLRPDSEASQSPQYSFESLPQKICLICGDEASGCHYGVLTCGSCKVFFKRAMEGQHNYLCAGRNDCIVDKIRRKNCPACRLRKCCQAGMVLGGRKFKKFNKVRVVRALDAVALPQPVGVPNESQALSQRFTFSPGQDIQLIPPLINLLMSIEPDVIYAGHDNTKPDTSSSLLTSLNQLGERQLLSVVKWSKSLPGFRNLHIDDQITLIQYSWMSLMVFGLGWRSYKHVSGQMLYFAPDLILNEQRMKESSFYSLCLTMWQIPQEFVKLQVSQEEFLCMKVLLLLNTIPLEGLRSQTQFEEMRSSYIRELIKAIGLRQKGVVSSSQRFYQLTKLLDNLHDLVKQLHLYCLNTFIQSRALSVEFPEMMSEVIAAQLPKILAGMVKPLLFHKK
T1 sequence (O75376 whole entry partner): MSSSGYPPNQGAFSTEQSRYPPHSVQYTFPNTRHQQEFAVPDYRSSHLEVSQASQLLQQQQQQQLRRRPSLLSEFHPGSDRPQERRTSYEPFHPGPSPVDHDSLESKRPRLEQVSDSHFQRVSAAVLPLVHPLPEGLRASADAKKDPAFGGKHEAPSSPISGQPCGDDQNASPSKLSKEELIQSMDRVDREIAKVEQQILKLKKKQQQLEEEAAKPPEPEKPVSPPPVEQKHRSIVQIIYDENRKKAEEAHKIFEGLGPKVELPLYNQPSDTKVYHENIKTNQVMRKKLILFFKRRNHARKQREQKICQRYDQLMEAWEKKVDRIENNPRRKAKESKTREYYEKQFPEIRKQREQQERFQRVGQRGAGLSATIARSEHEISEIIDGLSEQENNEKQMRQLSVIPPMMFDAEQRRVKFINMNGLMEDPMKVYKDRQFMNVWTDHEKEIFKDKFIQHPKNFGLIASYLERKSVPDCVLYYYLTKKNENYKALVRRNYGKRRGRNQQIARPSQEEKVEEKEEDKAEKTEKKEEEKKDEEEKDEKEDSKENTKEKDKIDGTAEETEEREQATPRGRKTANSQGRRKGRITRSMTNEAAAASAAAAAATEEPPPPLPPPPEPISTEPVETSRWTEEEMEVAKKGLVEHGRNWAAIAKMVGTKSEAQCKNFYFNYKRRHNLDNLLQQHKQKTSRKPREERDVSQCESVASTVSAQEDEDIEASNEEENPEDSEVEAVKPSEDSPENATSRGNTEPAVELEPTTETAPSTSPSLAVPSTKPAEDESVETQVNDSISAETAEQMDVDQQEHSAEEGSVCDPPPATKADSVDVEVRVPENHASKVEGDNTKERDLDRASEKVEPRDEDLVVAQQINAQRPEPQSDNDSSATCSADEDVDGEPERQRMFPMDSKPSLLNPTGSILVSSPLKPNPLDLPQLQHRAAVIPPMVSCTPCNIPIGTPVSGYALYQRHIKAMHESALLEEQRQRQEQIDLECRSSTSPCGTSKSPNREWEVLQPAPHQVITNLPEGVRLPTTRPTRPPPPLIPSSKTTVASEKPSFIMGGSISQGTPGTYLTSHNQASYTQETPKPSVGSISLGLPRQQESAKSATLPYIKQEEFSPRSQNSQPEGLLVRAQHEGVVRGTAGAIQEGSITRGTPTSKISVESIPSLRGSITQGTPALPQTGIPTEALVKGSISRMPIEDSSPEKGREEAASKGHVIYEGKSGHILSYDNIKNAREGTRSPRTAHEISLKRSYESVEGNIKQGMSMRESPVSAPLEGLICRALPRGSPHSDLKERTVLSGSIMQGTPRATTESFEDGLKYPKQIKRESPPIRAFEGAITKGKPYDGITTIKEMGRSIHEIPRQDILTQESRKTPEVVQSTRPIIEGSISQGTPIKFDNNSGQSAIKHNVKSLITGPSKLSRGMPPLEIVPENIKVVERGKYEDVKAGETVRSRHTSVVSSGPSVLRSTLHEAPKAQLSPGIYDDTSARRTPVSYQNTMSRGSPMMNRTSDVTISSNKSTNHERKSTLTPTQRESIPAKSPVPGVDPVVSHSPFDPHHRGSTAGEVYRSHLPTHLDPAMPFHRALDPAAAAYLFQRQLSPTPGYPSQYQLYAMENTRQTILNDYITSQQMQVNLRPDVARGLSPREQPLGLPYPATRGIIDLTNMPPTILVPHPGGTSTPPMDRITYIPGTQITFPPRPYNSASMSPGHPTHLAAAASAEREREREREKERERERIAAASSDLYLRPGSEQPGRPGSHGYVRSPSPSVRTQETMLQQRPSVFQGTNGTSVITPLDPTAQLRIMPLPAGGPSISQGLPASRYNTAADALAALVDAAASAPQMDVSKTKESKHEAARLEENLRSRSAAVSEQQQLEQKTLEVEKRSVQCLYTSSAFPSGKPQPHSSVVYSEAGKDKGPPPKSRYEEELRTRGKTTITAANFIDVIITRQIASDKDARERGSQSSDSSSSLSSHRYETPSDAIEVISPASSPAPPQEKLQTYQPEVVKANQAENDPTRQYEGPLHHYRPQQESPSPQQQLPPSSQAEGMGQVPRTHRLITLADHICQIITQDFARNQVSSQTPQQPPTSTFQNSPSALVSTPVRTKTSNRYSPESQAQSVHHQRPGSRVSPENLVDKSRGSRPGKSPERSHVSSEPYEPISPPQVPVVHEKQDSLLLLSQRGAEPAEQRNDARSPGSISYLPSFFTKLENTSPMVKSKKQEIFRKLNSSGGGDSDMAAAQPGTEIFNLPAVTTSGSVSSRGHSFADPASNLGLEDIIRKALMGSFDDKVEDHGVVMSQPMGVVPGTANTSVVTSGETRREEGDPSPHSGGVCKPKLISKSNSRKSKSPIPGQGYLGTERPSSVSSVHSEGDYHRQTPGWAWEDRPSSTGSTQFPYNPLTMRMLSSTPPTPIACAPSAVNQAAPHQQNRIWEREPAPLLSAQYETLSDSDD
Put plainly: PR-B – NCoR interaction, two-hybrid system. In kind it is cell-based. An excerpt: The active recruitment of the nuclear corepressor NCoR results in transcriptional inactivity of the PR. So, the potency of PR ligands to induce the interaction of PR with NCoR provides information on the antagonistic potency of the ligand. Therefore, the capacity of EC313 to induce the interaction of PR-B with the corepressor NCoR in comparison with reference ligands was studied. All test compounds except the receptor agonist Promegestone induced PR to interact with NCoR.
Figure 11 (A) PR-B interaction with NCoR using a two-hybrid assay. Dose response curve. […] (B) Liganded PR-Binteraction with c-SRC kinase. The data presented are from five independent experiments. Signals are represented as mean luminescence ± SD normalized to maximal promegestone activity equal to 100%.

For data set [2], the system named is human uterine fibroid xenografts. More on the design: method as in PMID 31754172. The conditions noted are these: ref [2], cited from earlier work.
A further data set addresses T2, human androgen receptor (Homo sapiens, UniProt P10275).
T2 construct: host or cells: CHO, transient co-transfection
T2 sequence (P10275 1-920): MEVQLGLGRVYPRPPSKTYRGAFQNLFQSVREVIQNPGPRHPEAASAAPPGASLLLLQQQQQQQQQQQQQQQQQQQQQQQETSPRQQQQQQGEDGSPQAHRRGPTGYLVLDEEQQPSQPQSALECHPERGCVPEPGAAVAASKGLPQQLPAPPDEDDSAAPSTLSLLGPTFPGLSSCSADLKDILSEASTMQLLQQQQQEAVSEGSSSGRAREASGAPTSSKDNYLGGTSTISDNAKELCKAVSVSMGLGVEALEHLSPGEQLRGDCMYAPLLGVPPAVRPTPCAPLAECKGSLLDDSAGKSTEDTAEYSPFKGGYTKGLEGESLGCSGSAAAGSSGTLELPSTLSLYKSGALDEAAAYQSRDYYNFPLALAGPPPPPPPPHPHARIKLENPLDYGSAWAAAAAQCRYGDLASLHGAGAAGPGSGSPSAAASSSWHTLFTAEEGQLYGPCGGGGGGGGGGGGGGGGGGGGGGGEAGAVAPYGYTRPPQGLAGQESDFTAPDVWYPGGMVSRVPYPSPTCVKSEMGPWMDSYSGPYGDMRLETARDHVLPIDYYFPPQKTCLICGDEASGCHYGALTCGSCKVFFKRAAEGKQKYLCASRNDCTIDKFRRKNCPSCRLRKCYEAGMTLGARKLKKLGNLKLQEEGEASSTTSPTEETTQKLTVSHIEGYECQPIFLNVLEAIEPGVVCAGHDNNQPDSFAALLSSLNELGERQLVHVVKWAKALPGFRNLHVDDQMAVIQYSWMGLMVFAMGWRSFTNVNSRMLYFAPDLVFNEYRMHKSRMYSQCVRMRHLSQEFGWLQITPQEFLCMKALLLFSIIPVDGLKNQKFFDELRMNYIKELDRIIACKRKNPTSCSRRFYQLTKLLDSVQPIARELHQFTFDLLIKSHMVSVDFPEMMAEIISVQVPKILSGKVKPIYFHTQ
Put plainly: AR transactivation (CHO, MMTV-LUC). In kind it is cell-based. How it is done:
The androgen transactivation potential of EC313 was studied in the CHO cell line expressing this steroid protein receptor. The cells were co-transfected with a vector encoding a human full-length androgen receptor (hAR) linked to the reporter vector MMTV/LUC. To produce high protein expression, transient transfections were carried out. […] Agonist and antagonist properties of EC313 toward tested receptor AR were analyzed using luminescence detection.
To prepare the transfection assay, plasmids were generated and isolated. Plasmid included vector coding sequences for the receptor as well as the reporter gene. Vector pcDNA3.1 coding sequence for the full length of human AR (AR cDNA ORF clone in pcDNA3.1+/C-(K)-DYK) was used as an expression vector for AR. Vector pGL4.36 coding for the androgen-responsive element (MMTV) linked to Firefly luciferase [luc2P/Hygro] was used as a reporter system (pGL4.36-MMTV/LUC).
Co-transfection was performed on a 96-well plate (16x10^3 cells per well) in culture medium (RPMI w/o phenol red, 10% FBS, L-Glu) w/o antibiotics using transfection reagents following the manufacturer’s instructions. Prior to transfection, plated cells were approximately 70%–80% confluent. After 24h of transfection, medium was removed to a culture medium and cells were treated for the next 24h with the test compounds.
After incubating the cells for 24h with the tested compounds, the luciferase activity was analyzed.

Molecules are shown by their SMILES.

For `C[C@]12C[C@H](c3ccc(-c4ccoc4)cc3)C3=C4CCC(=O)C=C4CC[C@H]3[C@@H]1CC[C@]21OCCC1=C(F)F` [EC313], in the data set “Aqueous solubility”, the aqueous solubility result was “very low aqueous solubility”. Also, the “Number of ovulations vs. number of inseminated females” value with cycling guinea pigs (0.1 mg/animal/day s.c.) is listed as 1/5. Besides, in the data set on cycling guinea pigs (1.0 mg/animal/day s.c.), the “Number of ovulations vs. number of inseminated females” value is 0/5. Besides, in the data set on cycling guinea pigs (10.0 mg/animal/day s.c.), the “Number of ovulations vs. number of inseminated females” value is 0/8. Also, in the data set on cycling guinea pigs (1 and 10 mg/animal/day s.c.), the “inhibition of ovulation” value was “Full inhibition of ovulation”. Also, the “effects in the vaginal epithelium” value in the data set on cycling guinea pigs (non-pregnant guinea pigs, all tested dose levels, 0.1 to 10.0 mg/animal/day s.c.) is “mucification”. In addition, in the data set on T47D cells, the “estradiol-induced proliferation of T47D” value is given as “counteracts the estradiol-induced proliferation of T47D”. In addition, the “Arrest in Go/G1” value in the data set on T47D cells (Proliferation, T47D cells, statistical significance not always reached) is on record as “↑”. Besides, in data set [1], the “androgenic / anti-androgenic effects (prostate plus seminal vesicle weights)” value was “neither significant androgenic nor anti-androgenic effects”. In addition, on PR-B – NCoR, the “efficacy relative to Ulipristal acetate, NCoR interaction” value was 83%; the “fold lower potency than Ulipristal acetate, NCoR interaction” value is listed as 200 fold; the “induction of PR interaction with NCoR” value is reported as “limited ability to induce progesterone receptor interaction with NCoR”. Besides, the “uterine fibroid markers desmin and collagen” value in data set [2] (Part A, 0.1 and 1.0 mg EC313/kg/day) is listed as “markedly reduced”. In addition, the fibroid xenograft weight entry in data set [2] (Part A, 0.1 and 1.0 mg/kg/day s.c., 60 days) is reported as “reduced the fibroid xenograft weight dose-dependently”. For the same molecule, in data set [2] (Part A, vs control p< 0.001, vs UPA p< 0.01), the “levels of ER and PR in grafts (immunohistochemistry)” value is “reduced”. In data set [2] (Part A, vs control, p< 0.0001), the “E2-induced proliferation in xenograft fibroids” value is listed as “blocked significantly”. Besides, in data set [2] (demonstrated previously), the “lowest effective dosage, uterine fibroid model” value was 0.1 mg/kg/day s.c. In addition, the “fold higher concentration for the same androgenic effect vs Metribolone” value at human androgen receptor (AR agonism) is 38 fold. Also, the EC50 on human androgen receptor (AR, three experiments, read-out: EC50, agonistic activity) worked out at 280 nM. Moreover, the antagonistic activity result on human androgen receptor (AR, vs 13 nM Metribolone) was “No antagonistic activity”.
